Here are results for two compounds from patent publication US11235074B2, “Contrast agents for magnetic resonance imaging” (Duke University, priority 2015, dated 2022).

Series [1] can be described thus: In vitro phantom quantitative T2 mapping (spin-spin relaxation MRI contrast) at 7 T. The method, then:
Data are provided from quantitative T2 mapping at 7 T using a RARE FSE protocol with at least 6 different echo times, at solute concentrations of 10 and 20 mM.

Series [2] has as its system brain of normal C57 black mouse. The series can be described thus: In vivo ascorbate T2 contrast changes in normal mouse brain. Particulars: 2 g/kg i.v., normal C57 mice, FIG. 9B. The protocol:
Color-lute maps of signal intensity are not subtracted from the pre-dose scan and therefore show the expected decreases in T2 signal over time, maximized between 30-60 min in normal C57 mice.

For series [3] the following is noted: cited from earlier work.
The conditions of series [4]: cited from earlier work. The source holds these as a separate data set.
The conditions of series [5]: cited from earlier work. The source holds these as a separate data set.
The subject of series [6] is whole brains of guinea pigs. The series can be described thus: T2 contrast changes in guinea pig brain after i.v. ascorbate formulations, 7 T. The series is classed as in vivo. Particulars: 2 g/kg i.v. over 60 minutes, nearly every time point. The protocol:
MRI was performed for 90 minutes.

Read-outs that look alike come from different tables or passages of the source.

Turning to `O=C1O[C@H]([C@@H](O)CO)C(O)=C1O` [ascorbate, L-ascorbic acid], the “change in T2 relaxation” value in series [1] (10 mM ascorbate with physiological glucose (5 mM) or HCO3- (25 mM), FIG. 5) was 50%. In addition, the “pH at which T2 effect is maximized” value in series [1] (FIG. 3C) is listed as 7.0-7.4. The “lowest concentration with statistically significant negative T2 contrast (signal loss)” value in series [1] (vs phosphate-buffered saline control, conventional FSE acquisition, FIG. 3A) lay in the range of 1 to 5 mM. In addition, in series [2], the “time of maximal decrease in T2 signal” value fell in the range of 30 to 60 min. The plasma concentration achievable in series [3] (administered intravenously) is no less than 10000 µM. Moreover, the plasma concentration in series [3] (oral ascorbate, doses more than 100 times the recommended daily allowance) was no more than 200 µM. The excretion half-life entry in series [3] (urinary excretion of concentrations over the renal re-absorption threshold) is listed as “about 30 minutes”. Further, the pKA in series [4] (disproportionation reaction at equilibrium) is 7.0; in series [4] (hydroxyl group at the 4 position), 6.75. Also, the “fraction present as the mono anion” value in series [4] (physiological pH (7.4)) is 99%. Also, the “H2O2 concentration in brain and tumors in vivo following parenteral ascorbate” value in series [5] (brain and tumors) is 100 to 200 µM. In addition, in series [5] (tumors, brain cells and some other tissues), the intracellular concentration was 10 to 30 mM.
On to meglumine ascorbate, for which the “T2 contrast effect (T2 relaxation in ms) relative to meglumine or ascorbate alone” value in series [1] (water, neutral pH, FIG. 3D) is given as “approximately 4 times”. Further, the “FSE T2 weighted signal intensity changes, comparison between formulations” value in series [6] is listed as “greater than those observed with sodium ascorbate (1)”.
